From patent publication US20040258633A1, “Composition containing monoterpenes for topical oral administration” (Gisol Ltd., priority 2000, published 2004)

Assay: Example 5 salt solution mouth wash, periodontal index (PI)
Assay type: in vivo
Conditions: 10% salt solution mouth wash, 30 seconds, twice a day, for a week; point of origin = 1
Experimental: Using solutions having a concentration of 10% the salts presented in table 3 below were applied after tooth brushing, in the form of a mouth wash. The mouth wash was applied for 30 seconds, twice a day, for a week. The following results were measured according to the periodontal index (PI): […]

| Compound | PI (periodontal index) |
| --- | --- |
| [Cl-].[Na+] [NaCl] | 1.32 |
| [Br-].[Br-].[Mg+2] [MgBr2] | 1.58 |
| [Cl-].[K+] [Kcl] | 1.47 |
